# Test results from US20020198221A1, “N-methyl-N-(3-{3-[2-thienylcarbonyl]-pyrazol-[1,5-alpha]-pyrimidin-7-yl}phenyl)acetamide and compositions and, methods related thereto” (priority 1999, published 2002).
# “Also recorded” adds a separate entry of the source.
# Columns and labels:
# rats [1] = assay: one-trial passive avoidance test (amnesia); format: in vivo, rat; conditions: for Amnestic Liability Index: ratio ED50 decreased motor activity / MED to produce amnesia
# Description: This effect can be studied in rats by the one-trial passive avoidance test. In this test an undrugged, naive rat is given an electric shock when it moves from the illuminated side to the darkened side of a two-compartment chamber. When tested for recall of this training 24 hours later, a placebo-injected animal will show excellent recall of the aversive training, and thus a high latency time for entering the darkened side.
# GABAA receptor = assay: [35S]TBPS binding to rat cortex membranes
# Text: TBPS binds to a site on the GABAA receptor which is closely associated with the chloride channel, and an increase in TBPS binding correlates with increased activation of the chloride conductance (i.e., enhanced GABAA receptor function). Compounds which act as agonists at the benzodiazepine site increase TBPS binding to varying degrees, which reflects their relative efficacies.
# rats [2] = assay: potentiation of ETOH-induced loss of righting response, ETOH 60 minutes after dosing; format: in vivo, rat; conditions: for ETOH Liability Index: ratio ED50 motor activity / MED ETOH potentiation; for Minimum Effective Dose (MED mg/kg) to potentiate ETOH-induced loss of righting response: rats, ETOH 3.2 g/kg i.p. 60 minutes after dosing
# Text: Benzodiazepines and barbiturate sedative-hypnotics produce a profound potentiation of the deleterious effects of ethanol (ETOH) in man and animals (Ayd, supra). Intraperitoneal ETOH alone, when administered to rats at a dose of 3.2 g/kg, produces a reliable loss of righting response. The loss of righting response caused by ETOH can be used to measure the possible interaction of ETOH with test drugs. This is done by delivering the ETOH and a test drug sequentially, and determining the Minimum Effective Dose of test drug which will potentiate the time that ETOH produces the loss of righting response. The ETOH Liability Index for a drug can be determined by calculating the ratio of (1) the ED50 of the test drug to decrease motor activity (a measure of sedation) to (2) the Minimum Effective Dose (MED) of the test drug to potentiate the time for ETOH-induced loss of righting response.
# ETOH Liability Indices were determined experimentally for Compound 1, flurazepam and triazolam by intraperitoneally delivering ETOH (3.2 g/kg) to the animals 60 minutes after dosing with each test drug (see Table 2 below).
# rats [3] = assay: potentiation of ETOH delivered 24 hours after dosing (hangover liability); format: in vivo, rat; conditions: for Hangover Liability Index: ETOH 24 hours after administration; for potentiation of ETOH delivered 24 hours after drug treatment: rat, in vivo
# Description: The important observation that Compound 1 causes very little potentiation of ETOH was extended by determining a Hangover Liability Index, the measure of the ability of the drug to potentiate ETOH 24 hours after administration (see Table 3 below). Sedative-hypnotic agents have been reported to produce drowsiness, confusion and other side effects in man on the day following the normal overnight use of these compounds.
# rats [4] = assay: motor activity in rats (activity meter); format: in vivo, rat; conditions: for ED50: Rattus norvegicus
# Description: (§1) The sedative effects of Compound 1 were measured in rats using a panel of standard tests which monitor the effects of drugs on motor activity, muscle relaxation and motor coordination.
# (§2) This latter compound is well characterized as a competitive antagonist at the benzodiazepine site, which can reverse the effects of benzodiazepine site agonists.
# (§3) Administration of benzodiazopines to animals and to man for periods of several weeks can result in a tolerance to their sedative effects (Finkle, supra). In order to assess tolerance to Compound 1, its effects were tested on rat motor activity, and on grip strength using the inclined screen procedures after single and repeated administrations. The results of these studies were then compared to results gathered from rats which had received similar dosings of triazolam.
# [5] = target: benzodiazepine site on the GABAA receptor; assay: [3H]flunitrazepam binding to rat cortex; conditions: for IC50: rat cortex, read-out: IC50, displacement of [3H]flunitrazepam binding
# rats [6] = assay: inclined screen grip strength test; format: in vivo, rat; conditions: for ED50: Rattus norvegicus
# Description: as §1, §2, §3
# rats [7] = assay: panel of standard tests for sedative effects in rats (motor activity, muscle relaxation, motor coordination); format: in vivo, rat
# Description: as §1
# rats [8] = assay: Thirsty Rat Conflict Procedure; format: in vivo
# Description: The Thirsty Rat Conflict Procedure involves rats which are deprived of water for 48 hours. They are then given brief electrical shocks following each 20th lick of a drinking tube. These shocks create a “conflict situation” which results in a marked decrease in licking (drinking) behavior.
# rats [9] = assay: rod walking test; format: in vivo; conditions: Rattus norvegicus, oral
# Description: as §1
# squirrel monkeys [10] = assay: vigilance test (reaction time) in squirrel monkeys; format: in vivo, squirrel monkey; conditions: >1 mg/kg orally one hour before testing
# Text: Vigilance tests based on reaction time measurements in monkeys measure drug induced slowing of responses and decreases in attentional or cognitive processes. Squirrel monkeys were trained to respond to a visual trigger by bar pressing for a food reward.
# rats [11] = assay: sleep duration in rats; format: in vivo, rat
# Description: (§4) Compound 1 produced dose-related increases in sleep duration in rats, with a minimum effective dose of 2.0 mg/kg.
# squirrel monkeys [12] = assay: Squirrel Monkey Conflict Procedure; format: in vivo
# Description: The Squirrel Monkey Conflict Procedure involves monkeys which are initially trained to press a bar to receive a food reward. In later sessions the animals were given occasional electrical shocks following randomly selected bar presses. These animals responded to the conflict situation by substantially lowering their levels of bar-pressing activity. […] This increase in conflict response reflects the anxiolytic effects of the drug. The increase drops off at 4.0 mg/kg, which may be due to a subtle sedative effect of the compound which begins developing in this dose range. The inverted-U shaped dose-response function described above for Compound 1 is consistent with the profile of other sedative-hypnotic drugs of the benzodiazepine-ligand class, and reflects the sedative properties of these drugs (Cook and Sepinwall, supra).
# rats [13] = assay: prevention of chemically induced convulsions in rats; format: in vivo, rat; conditions: for ED50: Rattus norvegicus
# Text: Benzodiazepine sedative-hypnotic agents are potent anticonvulsants in animals, and are used clinically for the treatment of status epilepticus. Oral doses of Compound 1 were effective in blocking convulsions in rats which resulted from injections of agents know to induce convulsion (see Table 1 below).
# rats [14] = assay: prevention of electrical shock induced convulsions; format: in vivo; conditions: Rattus norvegicus; oral; 150 mA, 60 Hz transcorneal shock for 0.3 seconds; read-out: ED50 blocking electrical shock induced convulsions
# squirrel monkeys [15] = assay: EEG studies in squirrel monkeys; format: in vivo, squirrel monkey; conditions: 4.0 mg/kg i.m.
# Description: as §4
# [16] = target: benzodiazepine site on the GABAA receptor; assay: [3H]flunitrazepam binding to rat cerebellum membranes; conditions: read-out: IC50, inhibition of [3H]flunitrazepam binding
# [17] = Table 2, read-out: Decrease in Motor Activity (ED50 mg/kg)
# [18] = inclined screen, fourth day of daily dosing, read-out: ED50 grip strength, tolerance study
# [19] = inclined screen, single administration, read-out: ED50 grip strength, tolerance study
# [20] = fourth day of daily dosing, read-out: ED50 motor activity, tolerance study
# [21] = single administration, read-out: ED50 motor activity, tolerance study
# [22] = 3.1 mg/kg Compound 1 p.o. + 10 mg/kg Ro 15-1788 i.p.
smiles,measurement,setting,value
CCN(CC)CCN1C(=O)CN=C(c2ccccc2F)c2cc(Cl)ccc21 [flurazepam],Amnestic Liability Index,rats [1],3.1
same,"Emax, maximum enhancement of TBPS binding",GABAA receptor,71%
same,ETOH Liability Index,rats [2],4.98
same,Minimum Effective Dose (MED mg/kg) to potentiate ETOH-induced loss of righting response,rats [2],5.0 mg/kg
same,Hangover Liability Index,rats [3],2.5
same,potentiation of ETOH delivered 24 hours after drug treatment,rats [3],significantly potentiated
same,ED50,rats [4]; [17],24.9 mg/kg
CN1C(=O)CN=C(c2ccccc2F)c2cc([N+](=O)[O-])ccc21 [flunitrazepam],IC50,[5],114 nM
CN1C(=O)CN=C(c2ccccc2)c2cc(Cl)ccc21 [diazepam],"Emax, maximum enhancement of TBPS binding",GABAA receptor,55%
same,IC50,[5],17 nM
"Cc1nnc2n1-c1ccc(Cl)cc1C(c1ccccc1Cl)=NC2 [triazolam, reference compound]",Amnestic Liability Index,rats [1],1.6
same,"Emax, maximum enhancement of TBPS binding",GABAA receptor,78%
same,ETOH Liability Index,rats [2],20
same,Minimum Effective Dose (MED mg/kg) to potentiate ETOH-induced loss of righting response,rats [2],.08 mg/kg
same,Hangover Liability Index,rats [3],10
same,potentiation of ETOH delivered 24 hours after drug treatment,rats [3],significantly potentiated
same,ED50,rats [6]; [18],> 100 mg/kg
same,ED50,rats [6]; [19],5.1 mg/kg
same,IC50,[5],0.5 nM
same,ED50,rats [4]; [17],1.6 mg/kg
same,ED50,rats [4]; [20],> 100 mg/kg
same,ED50,rats [4]; [21],3.9 mg/kg
CC(=O)Nc1cccc(-c2ccnc3c(C(=O)c4cccs4)cnn23)c1 [desmethyl metabolite of Compound 1],"Emax, maximum enhancement of TBPS binding",GABAA receptor,28%
same,sedative effects in the test panel,"rats [7]; motor activity, inclined screen, rod walking",did not show sedative effects
same,effect in thirsty rat conflict model,rats [8]; 12 mg/kg,without effect
same,times less potent than Compound 1 in displacing radiolabeled flunitrazepam,[5],approximately 74 times
same,IC50,[5],725 nM
Cc1ccc(-c2nc3ccc(C)cn3c2CC(=O)N(C)C)cc1 [zolpidem],IC50,[5],26 nM
"CC(=O)N(C)c1cccc(-c2ccnc3c(C(=O)c4cccs4)cnn23)c1 [Compound 1, N-methyl-N-(3-{3-[2-thienylcarbonyl]-pyrazol-[1,5-α]-pyrimidin-7-yl}phenyl)acetamide]",amnestic effect,"rats [1]; rat, in vivo",small amnestic effect compared to triazolam or flurazepam
same,Amnestic Liability Index,rats [1],0.15
same,"Emax, maximum enhancement of TBPS binding",GABAA receptor,65%
same,sedative potency relative to reference drugs,rats [7],approximately equipotent with triazolam and more potent than zolpidem and flurazepam
same,times less ETOH liability compared to triazolam and flurazepam,"rats [2]; rat, in vivo, oral, 60 min",≥ 10 times
same,ETOH Liability Index,rats [2],0.48
same,Minimum Effective Dose (MED mg/kg) to potentiate ETOH-induced loss of righting response,rats [2],2.5 mg/kg
same,ED50,rats [9],3 mg/kg
same,effect on accuracy and latency of responses,squirrel monkeys [10],dose related decrements in both the accuracy and latency of the responses
same,minimum effective dose for increase in sleep duration,rats [11],2.0 mg/kg
same,increase in conflict response,squirrel monkeys [12]; 4.0 mg/kg,drops off
same,increase above baseline responses to conflict situation,squirrel monkeys [12]; oral 2.0 mg/kg,100%
same,ED50,"rats [13]; rats, oral, inducer Bicuculline (iv), read-out: ED50 preventing convulsion",2.3 mg/kg
same,ED50,"rats [13]; rats, oral, inducer Pentylenetetrazol (iv), read-out: ED50 preventing convulsion",2.5 mg/kg
same,ED50,"rats [13]; read-out: ED50 preventing convulsion, rats, oral, inducer Picrotoxin (sc)",1.9 mg/kg
same,ED50,"rats [13]; read-out: ED50 preventing convulsion, rats, oral, inducer Strychnine (sc)",4.4 mg/kg
same,anticonvulsant potency relative to reference drugs,rats [13]; all five methods (four chemical inducers and electrical shock),less than that of triazolam and greater than that of flurazepam
same,ED50,rats [14],5.5 mg/kg
same,increase in number of shocks accepted vs vehicle control,rats [8]; oral 0.3 mg/kg,100%
same,Hangover Liability Index,rats [3],0.0
same,potentiation of ETOH delivered 24 hours after drug treatment,rats [3],failed to potentiate ETOH
same,effect on grip strength (inclined screen) with Ro 15-1788 co-treatment,rats [6]; [22],reverse the impairment of grip strength; also recorded: reversed
same,ED50,rats [6]; [18],18.3 mg/kg
same,ED50,rats [6]; [19],2.6 mg/kg
same,ED50,"rats [6]; po, inclined screen grip strength test, read-out: ED50 for muscle relaxant effects",2.7 mg/kg
same,IC50,[5],9.8 nM
same,effect on motor/locomotor activity with Ro 15-1788 co-treatment,rats [4]; [22],antagonize the decreases in motor activity; also recorded: reversed
same,ED50,rats [4]; [17],1.2 mg/kg
same,ED50,rats [4]; [20],14.5 mg/kg
same,ED50,"rats [4]; po, activity meter, read-out: ED50 for decrease in motor activity",1.2 mg/kg
same,ED50,rats [4]; [21],2.4 mg/kg
same,changes in EEG power spectrum,squirrel monkeys [15],a relative decrease in alpha activity and an increase in beta activity
same,IC50,[16],2 nM
